One compound from US20050288270A1, “New aminopyridine derivatives and their use as pharmaceuticals” (Pfizer Inc, priority 2004, published 2005) can be followed below.

The target in one assay is D2 receptor (Homo sapiens, UniProt P14416). Briefly: D3/D2 agonist assay, functional response at D2 receptor. The format is cell-based. Conditions: at 1000 nM; relative to the maximal effect of pramipexole. On the procedure:
(§1) Activity at the dopamine D3 receptor may be determined using the methods described in WO 2004/052372. […] Selectivity is calculated as the D2 EC50 value divided by the D3 EC50 value. Where the value of the D2 EC50 was >10000, a figure of 10000 was used in the calculation.

The target of the next assay is dopamine D3 receptor (Homo sapiens, UniProt P35462). Briefly: D3/D2 agonist assay, functional potency at D3 receptor. The format is cell-based. The protocol: as §1
Sequence of dopamine D3 receptor (P35462 whole entry): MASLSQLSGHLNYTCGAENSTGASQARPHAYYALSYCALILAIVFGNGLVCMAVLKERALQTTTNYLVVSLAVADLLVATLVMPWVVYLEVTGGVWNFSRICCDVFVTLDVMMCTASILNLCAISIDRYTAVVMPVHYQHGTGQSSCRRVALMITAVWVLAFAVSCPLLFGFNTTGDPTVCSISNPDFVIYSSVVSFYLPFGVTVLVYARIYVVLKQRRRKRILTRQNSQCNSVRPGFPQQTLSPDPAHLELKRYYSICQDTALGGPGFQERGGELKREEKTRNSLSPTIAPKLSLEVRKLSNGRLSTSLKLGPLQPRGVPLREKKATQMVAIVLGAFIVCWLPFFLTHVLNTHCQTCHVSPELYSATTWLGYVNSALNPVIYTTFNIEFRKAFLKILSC

Sequence of D2 receptor (P14416 whole entry): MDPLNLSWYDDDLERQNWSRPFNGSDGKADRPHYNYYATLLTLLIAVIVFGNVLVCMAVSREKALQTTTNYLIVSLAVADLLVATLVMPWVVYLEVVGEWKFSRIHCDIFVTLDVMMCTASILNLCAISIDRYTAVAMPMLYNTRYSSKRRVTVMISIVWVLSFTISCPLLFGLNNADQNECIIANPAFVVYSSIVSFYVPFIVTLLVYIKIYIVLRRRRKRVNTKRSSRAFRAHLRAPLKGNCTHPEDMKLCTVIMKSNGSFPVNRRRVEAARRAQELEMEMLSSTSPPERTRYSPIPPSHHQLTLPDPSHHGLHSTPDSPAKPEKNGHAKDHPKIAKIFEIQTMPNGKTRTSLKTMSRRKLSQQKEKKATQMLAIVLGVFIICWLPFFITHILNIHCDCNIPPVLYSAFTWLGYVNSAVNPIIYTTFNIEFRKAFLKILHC

As for `CCCN1CC(c2ccc(N)nc2)OCC1CO` (single isomer, unassigned) [Example 14, [6-(6-Aminopyridin-3-yl)-4-propylmorpholin-3-yl]methanol], at D2 receptor, the “response against the D2 receptor” value turned out to be 22%. In addition, on dopamine D3 receptor (agonist, read-out: functional potency at the D3 receptor, expressed as an EC50), the EC50 was determined as 20 nM. Besides, on dopamine D3 receptor (relative to the maximal effect of standard agent pramipexole, read-out: Emax (maximal response value)), the Emax is 98%.

For orientation: EC50 means the concentration at which the effect is half-maximal. In general, Emax refers to the greatest response seen or fitted, relative to the assay's reference.
